Columns and labels:
Format in all cases: in vivo
[1] = system: morningglory (Ipomoea hederacea); assay: Preemergence herbicidal activity, morningglory; conditions: soil spray, visual after 3 weeks, 0 no injury, 100 complete kill or no germination
Protocol: (§1) The soil matrix was contained in plastic pots with a surface area of 161 square centimeters. When required to ensure good germination and healthy plants, a fungicide treatment and/or other chemical or physical treatment was applied. A weighed amount, determined by the highest rate to be tested, of each test compound was placed in a 20 mL glass vial and was dissolved in 8 mL of a 97:3 v/v (volume/volume) mixture of acetone and dimethyl sulfoxide to obtain concentrated stock solutions. […] The stock solutions obtained were diluted with a 99.9:0.1 mixture of water and Tween® 155 surfactant (ethoxylated sorbitan fatty acid ester) to obtain application solutions of known concentration. The solutions containing the highest concentration to be tested were prepared by diluting 4 mL aliquots of the stock solution with 8.5 mL of the mixture and lower concentrations were prepared by dilution of appropriate smaller portions of the stock solution. A 2.5 mL aliquot of each solution of known concentration was sprayed evenly onto the soil of each seeded pot using a Cornwall 5.0 mL glass syringe fitted with a TeeJet TN-3 hollow cone nozzle to obtain thorough coverage of the soil in each pot. Control pots were sprayed in the same manner with the aqueous mixture. A highest application rate of 4.48 kg/ha is achieved when 50 mg of test compound is employed. The treated pots and control pots were placed in a greenhouse with an approximately 15 hr photoperiod which was maintained at about 23-29° C. during the day and 22-28° C. during the night. Nutrients and water were added on a regular basis and supplemental lighting was provided with overhead metal halide 1000 Watt lamps as necessary. The water was added by top-irrigation. After 3 weeks the condition of the test plants that germinated and grew as compared with that of the untreated plants that germinated and grew was determined visually and scored on a scale of 0 to 100 percent where 0 corresponds to no injury and 100 corresponds to complete kill or no germination.

[2] = system: lambsquarters (Chenopodium album); assay: Postemergence herbicidal activity, lambsquarters; conditions: foliar spray, visual after 2 weeks, 0 no injury, 100 complete kill
Protocol: (§2) Seeds of the desired test plant species were planted in Grace-Sierra MetroMix® 306 planting mixture, which typically has a pH of 6.0 to 6.8 and an organic matter content of about 30 percent, in plastic pots with a surface area of 64 square centimeters. When required to ensure good germination and healthy plants, a fungicide treatment and/or other chemical or physical treatment was applied. The plants were grown for 7-21 days in a greenhouse with an approximately 15 hr photoperiod which was maintained at about 23-29° C. during the day and 22-28° C. during the night. Nutrients and water were added on a regular basis and supplemental lighting was provided with overhead metal halide 1000 Watt lamps as necessary. The plants were employed for testing when they reached the first or second true leaf stage. A weighed amount of each test compound, determined by the highest rate to be tested, was placed in a 20 mL glass vial and was dissolved in 4 mL of a 97:3 v/v (volume/volume) mixture of acetone and dimethyl sulfoxide to obtain concentrated stock solutions. […] The concentrated stock solutions obtained were diluted with an aqueous mixture containing acetone, water, iso-propyl alcohol, dimethyl sulfoxide, Atplus 411F crop oil concentrate, and Triton X-155 surfactant (methylenebisdiamyl phenoxy polyethoxy ethanol) in a 48.5:39:10:1.5:1.0:0.02 v/v ratio to obtain spray solutions of known concentration. The solutions containing the highest concentration to be tested were prepared by diluting 2 mL aliquots of the stock solution with 13 mL of the mixture and lower concentrations were prepared by dilution of appropriate smaller portions of the stock solution. Approximately 1.5 mL aliquots of each solution of known concentration were sprayed evenly onto each of the test plant pots using a DeVilbiss atomizer driven by compressed air pressure of 2 to 4 psi (140 to 280 kilopascals) to obtain thorough coverage of each plant. Control plants were sprayed in the same manner with the aqueous mixture. In this test an application rate of 1 ppm results in the application of approximately 1 g/ha. The treated plants and control plants were placed in a greenhouse as described above and watered by sub-irrigation to prevent wash-off of the test compounds. After 2 weeks the condition of the test plants as compared with that of the untreated plants was determined visually and scored on a scale of 0 to 100 percent where 0 corresponds to no injury and 100 corresponds to complete kill.

[3] = system: blackgrass (Alopecurus myosuroides); assay: Preemergence herbicidal activity, blackgrass; conditions: soil spray, visual after 3 weeks, 0 no injury, 100 complete kill or no germination
Protocol: as §1

[4] = system: pigweed (Amaranthus retroflexus); assay: Postemergence herbicidal activity, pigweed; conditions: foliar spray, visual after 2 weeks, 0 no injury, 100 complete kill
Protocol: as §2

[5] = system: velvetleaf (Abutilion theophrasti); assay: Postemergence herbicidal activity, velvetleaf; conditions: foliar spray, visual after 2 weeks, 0 no injury, 100 complete kill
Protocol: as §2

[6] = system: cocklebur (Xanthium strumarium); assay: Preemergence herbicidal activity, cocklebur; conditions: 35 g/Ha, soil spray, visual after 3 weeks; 0 no injury, 100 complete kill or no germination
Protocol: as §1

wild oats (Avena fatua) [7] = assay: Preemergence herbicidal activity, wild oats; conditions: soil spray, visual after 3 weeks, 0 no injury, 100 complete kill or no germination
Protocol: as §1

[8] = system: giant foxtail (Setaria faberi); assay: Preemergence herbicidal activity, giant foxtail; conditions: soil spray, visual after 3 weeks, 0 no injury, 100 complete kill or no germination
Protocol: as §1

[9] = system: barnyardgrass (Echinochloa crus-galli); assay: Preemergence herbicidal activity, barnyardgrass; conditions: soil spray, visual after 3 weeks, 0 no injury, 100 complete kill or no germination
Protocol: as §1

[10] = system: velvetleaf (Abutilion theophrasti); assay: Preemergence herbicidal activity, velvetleaf; conditions: soil spray, visual after 3 weeks, 0 no injury, 100 complete kill or no germination
Protocol: as §1

[11] = system: chickweed (Stellaria media); assay: Postemergence herbicidal activity, chickweed; conditions: foliar spray, visual after 2 weeks, 0 no injury, 100 complete kill
Protocol: as §2

[12] = system: lambsquarters (Chenopodium album); assay: Preemergence herbicidal activity, lambsquarters; conditions: soil spray, visual after 3 weeks, 0 no injury, 100 complete kill or no germination
Protocol: as §1

[13] = system: giant foxtail (Setaria faberi); assay: Postemergence herbicidal activity, giant foxtail; conditions: foliar spray, visual after 2 weeks, 0 no injury, 100 complete kill
Protocol: as §2

[14] = system: blackgrass (Alopecurus myosuroides); assay: Postemergence herbicidal activity, blackgrass; conditions: foliar spray, visual after 2 weeks, 0 no injury, 100 complete kill
Protocol: as §2

[15] = system: Rox orange sorghum (Sorghum bicolor); assay: Postemergence herbicidal activity, Rox orange sorghum; conditions: foliar spray, visual after 2 weeks, 0 no injury, 100 complete kill
Protocol: as §2

[16] = system: cocklebur (Xanthium strumarium); assay: Postemergence herbicidal activity, cocklebur; conditions: foliar spray, visual after 2 weeks, 0 no injury, 100 complete kill
Protocol: as §2

[17] = system: wild buckwheat (Polygonum convolvulus); assay: Postemergence herbicidal activity, wild buckwheat; conditions: foliar spray, visual after 2 weeks, 0 no injury, 100 complete kill
Protocol: as §2

[18] = system: wild poinsettia (Euphorbia heterophylla); assay: Preemergence herbicidal activity, wild poinsettia; conditions: soil spray, visual after 3 weeks, 0 no injury, 100 complete kill or no germination
Protocol: as §1

[19] = system: morningglory (Ipomoea hederacea); assay: Postemergence herbicidal activity, morningglory; conditions: foliar spray, visual after 2 weeks, 0 no injury, 100 complete kill
Protocol: as §2

viola (Viola tricolor) = assay: Postemergence herbicidal activity, viola; conditions: foliar spray, visual after 2 weeks, 0 no injury, 100 complete kill
Protocol: as §2

[20] = system: Rox orange sorghum (Sorghum bicolor); assay: Preemergence herbicidal activity, Rox orange sorghum; conditions: soil spray, visual after 3 weeks, 0 no injury, 100 complete kill or no germination
Protocol: as §1

[21] = system: pigweed (Amaranthus retroflexus); assay: Preemergence herbicidal activity, pigweed; conditions: soil spray, visual after 3 weeks, 0 no injury, 100 complete kill or no germination
Protocol: as §1

[22] = system: crabgrass (Digitaria sanguinalis); assay: Preemergence herbicidal activity, crabgrass; conditions: soil spray, visual after 3 weeks, 0 no injury, 100 complete kill or no germination
Protocol: as §1

wild oats (Avena fatua) [23] = assay: Postemergence herbicidal activity, wild oats; conditions: foliar spray, visual after 2 weeks, 0 no injury, 100 complete kill
Protocol: as §2

COc1cc(Cl)sc1S(=O)(=O)Nc1nc2c(OC)cnc(OC)n2n1 [Compound 3]
IPOHE preemergence injury score 0-100 ([1]; 35 g/Ha): 60%
CHEAL postemergence injury score 0-100 ([2]; 31 ppm): 95%
ALOMY preemergence injury score 0-100 ([3]; 35 g/Ha): 80%
AMARE postemergence injury score 0-100 ([4]; 31 ppm): 100%
ABUTH postemergence injury score 0-100 ([5]; 31 ppm): 70%
XANST preemergence injury score 0-100 [6]: 70%
AVEFA preemergence injury score 0-100 (wild oats (Avena fatua) [7]; 35 g/Ha): 70%
SETFA preemergence injury score 0-100 ([8]; 35 g/Ha): 90%
ECHCG preemergence injury score 0-100 ([9]; 35 g/Ha): 70%
ABUTH preemergence injury score 0-100 ([10]; 35 g/Ha): 50%
STEME postemergence injury score 0-100 ([11]; 31 ppm): 70%
CHEAL preemergence injury score 0-100 ([12]; 35 g/Ha): 95%
SETFA postemergence injury score 0-100 ([13]; 31 ppm): 85%
ALOMY postemergence injury score 0-100 ([14]; 31 ppm): 70%
SORBI postemergence injury score 0-100 ([15]; 31 ppm): 90%
XANST postemergence injury score 0-100 ([16]; 31 ppm): 100%
POLCO postemergence injury score 0-100 ([17]; 31 ppm): 85%
EPHHL preemergence injury score 0-100 ([18]; 35 g/Ha): 70%
IPOHE postemergence injury score 0-100 ([19]; 31 ppm): 70%
VIOTR postemergence injury score 0-100 (viola (Viola tricolor); 31 ppm): 80%
SORBI preemergence injury score 0-100 ([20]; 35 g/Ha): 90%
AMARE preemergence injury score 0-100 ([21]; 35 g/Ha): 95%
DIGSA preemergence injury score 0-100 ([22]; 35 g/Ha): 95%
AVEFA postemergence injury score 0-100 (wild oats (Avena fatua) [23]; 31 ppm): 80%

COc1cc(OC)n2nc(NS(=O)(=O)c3sc(Cl)cc3OC)nc2n1 [Compound 4]
IPOHE preemergence injury score 0-100 ([1]; 35 g/Ha): 50%
CHEAL postemergence injury score 0-100 ([2]; 15.6 ppm): 90%
ALOMY preemergence injury score 0-100 ([3]; 35 g/Ha): 95%
AMARE postemergence injury score 0-100 ([4]; 15.6 ppm): 100%
ABUTH postemergence injury score 0-100 ([5]; 15.6 ppm): 70%
XANST preemergence injury score 0-100 [6]: 0%
AVEFA preemergence injury score 0-100 (wild oats (Avena fatua) [7]; 35 g/Ha): 60%
SETFA preemergence injury score 0-100 ([8]; 35 g/Ha): 90%
ECHCG preemergence injury score 0-100 ([9]; 35 g/Ha): 0%
ABUTH preemergence injury score 0-100 ([10]; 35 g/Ha): 70%
STEME postemergence injury score 0-100 ([11]; 15.6 ppm): 60%
CHEAL preemergence injury score 0-100 ([12]; 35 g/Ha): 80%
SETFA postemergence injury score 0-100 ([13]; 15.6 ppm): 85%
ALOMY postemergence injury score 0-100 ([14]; 15.6 ppm): 70%
SORBI postemergence injury score 0-100 ([15]; 15.6 ppm): 70%
XANST postemergence injury score 0-100 ([16]; 15.6 ppm): 60%
POLCO postemergence injury score 0-100 ([17]; 15.6 ppm): 90%
EPHHL preemergence injury score 0-100 ([18]; 35 g/Ha): 40%
IPOHE postemergence injury score 0-100 ([19]; 15.6 ppm): 60%
VIOTR postemergence injury score 0-100 (viola (Viola tricolor); 15.6 ppm): 60%
SORBI preemergence injury score 0-100 ([20]; 35 g/Ha): 80%
AMARE preemergence injury score 0-100 ([21]; 35 g/Ha): 100%
DIGSA preemergence injury score 0-100 ([22]; 35 g/Ha): 90%
AVEFA postemergence injury score 0-100 (wild oats (Avena fatua) [23]; 15.6 ppm): 60%

COc1csc(C(F)(F)F)c1S(=O)(=O)Nc1nc2c(OC)cnc(OC)n2n1 [Compound 10]
IPOHE preemergence injury score 0-100 ([1]; 8.8 g/Ha): 80%
CHEAL postemergence injury score 0-100 ([2]; 15.6 ppm): 70%
ALOMY preemergence injury score 0-100 ([3]; 8.8 g/Ha): 90%
AMARE postemergence injury score 0-100 ([4]; 15.6 ppm): 95%
ABUTH postemergence injury score 0-100 ([5]; 15.6 ppm): 90%
AVEFA preemergence injury score 0-100 (wild oats (Avena fatua) [7]; 8.8 g/Ha): 90%
SETFA preemergence injury score 0-100 ([8]; 8.8 g/Ha): 90%
ECHCG preemergence injury score 0-100 ([9]; 8.8 g/Ha): 90%
ABUTH preemergence injury score 0-100 ([10]; 8.8 g/Ha): 70%
STEME postemergence injury score 0-100 ([11]; 15.6 ppm): 98%
CHEAL preemergence injury score 0-100 ([12]; 8.8 g/Ha): 95%
SETFA postemergence injury score 0-100 ([13]; 15.6 ppm): 90%
ALOMY postemergence injury score 0-100 ([14]; 15.6 ppm): 50%
SORBI postemergence injury score 0-100 ([15]; 15.6 ppm): 80%
XANST postemergence injury score 0-100 ([16]; 15.6 ppm): 100%
POLCO postemergence injury score 0-100 ([17]; 15.6 ppm): 70%
EPHHL preemergence injury score 0-100 ([18]; 8.8 g/Ha): 75%
IPOHE postemergence injury score 0-100 ([19]; 15.6 ppm): 80%
VIOTR postemergence injury score 0-100 (viola (Viola tricolor); 15.6 ppm): 90%
SORBI preemergence injury score 0-100 ([20]; 8.8 g/Ha): 100%
AMARE preemergence injury score 0-100 ([21]; 8.8 g/Ha): 100%
DIGSA preemergence injury score 0-100 ([22]; 8.8 g/Ha): 70%
AVEFA postemergence injury score 0-100 (wild oats (Avena fatua) [23]; 15.6 ppm): 80%

— patent publication US6645918B1, “N-([1,2,4]triazoloazinyl)thiophenesulfonamide compounds and their use as herbicides” (Dow AgroSciences LLC, priority 2000, dated 2003)
